Reference: ChEMBL document CHEMBL4680129, “Hit-to-lead optimization of novel 2-alkylaminomethylquinoline derivatives as anti-chagas agents” (Eur J Med Chem, 2020)
The source made the active and inactive calls. No cut-off for these calls is given here.

Columns and labels:
Trypanosoma cruzi [1] = experiment: Antitrypanosomal activity against Trypanosoma cruzi epimastigotes measured after 72 hrs by Neubauer hemocytometer counting method; assay type: functional, organism-based
Trypanosoma cruzi [2] = experiment: Antitrypanosomal activity against bloodstream Trypanosoma cruzi trypomastigotes measured after 24 hrs by Neubauer chamber method; assay type: functional, organism-based
Trypanosoma cruzi [3] = experiment: Antitrypanosomal activity against […] expressing beta-galactosidase infected in african green monkey VERO cells incubated for 5 days measured by microplate reader assay; assay type: functional, organism-based; conditions: 120 h
[4] = Cytotoxicity against African green monkey Vero cells assessed as reduction in cell viability measured after 24 hrs by MTT assay; assay type: cell-based; conditions: chlorocebus sabaeus
[5] = Selectivity index, ratio of CC50 African green monkey Vero cells to IC50 for Trypanosoma cruzi epimastigotes; assay type: toxicity; conditions: read-out: Selectivity Index
[6] = Selectivity index, ratio of CC50 African green monkey Vero cells to IC50 for Trypanosoma cruzi trypomastigotes; assay type: toxicity; conditions: read-out: Selectivity Index
[7] = Selectivity index, ratio of CC50 African green monkey Vero cells to IC50 for Trypanosoma cruzi amastigotes; assay type: toxicity; conditions: read-out: Selectivity Index
Trypanosoma cruzi [8] = experiment: Anti-chagasic activity against Trypanosoma cruzi trypomastigotes infected in C3H mouse assessed as reduction in parasitemia at 10 mg/kg, po treated 10 days post infection for 7 consecutive days by Neubauer chamber counting method relative to control; assay type: functional; design: scale not given: the % may be the effect or the level left; conditions: time 7 day
Trypanosoma cruzi [9] = experiment: Anti-chagasic activity against Trypanosoma cruzi trypomastigotes infected in C3H mouse assessed as reduction in parasitemia at 50 mg/kg, po treated 10 days post infection for 7 consecutive days by Neubauer chamber counting method relative to control; assay type: functional; conditions: time 7.0 day
Trypanosoma cruzi [10] = experiment: Anti-chagasic activity against Trypanosoma cruzi trypomastigotes infected in C3H mouse assessed as increase in body weight at 10 mg/kg, po treated 10 days post infection measured on day 19 (reference value: -1.8%); assay type: functional; conditions: time 9.0 day
[11] = Toxicity in C3H mouse infected with Trypanosoma cruzi trypomastigotes assessed as mortality at 10 to 50 mg/kg, po treated 10 days post infection for 7 consecutive days; assay type: organism-based; conditions: in vivo, 168 h, dose 10-50 mg/kg, time 7 day
Trypanosoma cruzi [12] = experiment: Anti-chagasic activity against Trypanosoma cruzi trypomastigotes infected in C3H mouse assessed as physically healthy with shiny appearance at 10 mg/kg, po treated 10 days post infection measured on day 19; assay type: functional, organism-based; conditions: time 9.0 day
Trypanosoma cruzi [13] = experiment: Anti-chagasic activity against Trypanosoma cruzi trypomastigotes infected in C3H mouse assessed as well-groomed fur and alert at 10 mg/kg, po treated 10 days post infection measured on day 19; assay type: functional, organism-based; conditions: time 9.0 day
Trypanosoma cruzi [14] = experiment: Anti-chagasic activity against Trypanosoma cruzi trypomastigotes infected in C3H mouse assessed as active behaviour at 10 mg/kg, po treated 10 days post infection measured on day 19; assay type: functional, organism-based; conditions: time 9.0 day

With `O=C(Cn1ccnc1[N+](=O)[O-])NCc1ccccc1` [BENZNIDAZOLE] as the compound, how does the IC50 (Trypanosoma cruzi [1]) read?
Its IC50 is 5.8 µM.

What about the IC50 (Trypanosoma cruzi [2]) of the same compound?
Its IC50 is 34.1 µM.

And the IC50 (Trypanosoma cruzi [3])?
The IC50 was 3.6 µM.

And the CC50 at 24 h [4]?
The CC50 at 24 h was 706 µM.

What about the selectivity ratio [5] of the same compound?
Its selectivity ratio is 122.

And the selectivity ratio [6]?
Its selectivity ratio is 20.7.

What about the selectivity ratio [7] of the same compound?
The selectivity ratio was 196.

And the Activity (Trypanosoma cruzi [8])?
Its Activity is 58.9%.

And the Activity (Trypanosoma cruzi [9])?
The Activity was “inactive”.

What about the Activity (Trypanosoma cruzi [10]) of the same compound?
Its Activity is “inactive”.

What about the Activity [11] of the same compound?
The Activity was “Non-Toxic”.

And the Activity (Trypanosoma cruzi [12])?
Its Activity is “Active”.

And the Activity (Trypanosoma cruzi [13])?
The Activity was “Active”.

And the Activity (Trypanosoma cruzi [14])?
The Activity was “Active”.

With `O=C(O)c1c(CN2CCN(CCO)CC2)nc2ccc(Cl)cc2c1-c1ccccc1` as the compound, how does the IC50 (Trypanosoma cruzi [1]) read?
Its IC50 is 4.2 µM.

What about the IC50 (Trypanosoma cruzi [2]) of the same compound?
The IC50 was 56.1 µM.

What about the CC50 at 24 h [4] of the same compound?
Its CC50 at 24 h is 36 µM.

And the selectivity ratio [5]?
Its selectivity ratio is 8.6.

And the selectivity ratio [6]?
Its selectivity ratio is 0.6.

Which IC50 (Trypanosoma cruzi [1]) does the source give for `O=C(O)c1c(CNCCN2CCOCC2)nc2ccc(Cl)cc2c1-c1ccccc1` here?
The IC50 was 11.2 µM.

And the IC50 (Trypanosoma cruzi [2])?
Its IC50 is 11.9 µM.

And the CC50 at 24 h [4]?
Its CC50 at 24 h is 221 µM.

And the selectivity ratio [5]?
The selectivity ratio was 19.7.

What about the selectivity ratio [6] of the same compound?
The selectivity ratio was 18.5.
